The record followed here is patent EP4786466A1, “QUINAZOLINE DERIVATIVE, SALT THEREOF, AND PHARMACEUTICAL COMPOSITION COMPRISING SAME AS ACTIVE INGREDIENT” (Korea Research Institute of Chemical Technology, priority 2023, dated 2025).

The target in data set [1] is T1, Recombinant GST-TAG-MASTL (Homo sapiens, UniProt Q96GX5).
T1 construct: GST; purchased Thermo Fisher Scientific
T1 sequence (Q96GX5 1-879): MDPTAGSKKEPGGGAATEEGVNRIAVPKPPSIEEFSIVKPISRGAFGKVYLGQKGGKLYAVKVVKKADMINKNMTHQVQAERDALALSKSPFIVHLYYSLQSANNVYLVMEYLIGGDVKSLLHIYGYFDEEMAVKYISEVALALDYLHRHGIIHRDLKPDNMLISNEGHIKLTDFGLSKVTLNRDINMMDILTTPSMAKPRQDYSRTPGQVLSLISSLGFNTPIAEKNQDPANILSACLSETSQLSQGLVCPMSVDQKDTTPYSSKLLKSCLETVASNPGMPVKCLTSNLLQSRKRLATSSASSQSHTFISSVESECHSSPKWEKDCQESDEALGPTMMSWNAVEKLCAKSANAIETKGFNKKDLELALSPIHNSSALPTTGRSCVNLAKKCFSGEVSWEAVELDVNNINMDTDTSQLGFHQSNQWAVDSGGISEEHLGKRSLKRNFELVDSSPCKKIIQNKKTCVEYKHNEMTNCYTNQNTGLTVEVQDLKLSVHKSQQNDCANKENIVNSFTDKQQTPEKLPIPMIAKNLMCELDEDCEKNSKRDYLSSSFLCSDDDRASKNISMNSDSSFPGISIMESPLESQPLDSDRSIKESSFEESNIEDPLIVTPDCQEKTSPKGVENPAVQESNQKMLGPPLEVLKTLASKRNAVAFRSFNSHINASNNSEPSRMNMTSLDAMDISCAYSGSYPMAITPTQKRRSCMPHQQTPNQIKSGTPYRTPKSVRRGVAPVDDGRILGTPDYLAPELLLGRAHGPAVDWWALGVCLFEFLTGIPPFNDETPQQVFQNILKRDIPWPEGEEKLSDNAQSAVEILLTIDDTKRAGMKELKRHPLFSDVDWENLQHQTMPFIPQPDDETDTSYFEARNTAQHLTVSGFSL
Put plainly: HTRF-based kinase assay (HTRF KinEASE assay kit). It is filed as biochemical. As to conditions: for activity at 1 µM: read-out: MASTL activity (%) HTRF (1 µM); for IC50: HTRF, read-out: IC50(nM) MASTL activity. The text has this:
Recombinant GST-TAG-MASTL (Thermo Fisher Scientific, MA, USA) was used for HTRF-based kinase assays. The HTRF KinEASE assay kit (CisBio, MA, USA) was used according to the manufacturer's instructions.
Background: TR-FRET usually uses a lanthanide donor and a delayed reading to cut background.

Another data set deals with pENSA. Description: pENSA level by immunofluorescence (described method: in vitro kinase analysis with GST-tag-MASTL and His-tag-ENSA). The class given is cell-based. The following applies: for pENSA (%) Immunofluor ecense (1 µM): compound 1 µM. Put shortly:
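In vitro kinase reaction using recombinant GST-tagged MASTL with His-tagged ENSA as substrate; phosphorylated ENSA (pENSA) serves as read-out of MASTL activity. Cell lines named: MCF7 breast cancer and MCF10A.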

The nature of another data set: in vitro. As to conditions: human, mcf10a cells.
In data set [2] the test system is MCF7 breast cancer cell lines. Put plainly: Cell viability analysis, WST-8 assay, MCF7. As to conditions: Homo sapiens, MCF7, 72 h; for viability at 1 µM: read-out: Cell viability (%) WST-8, MCF7 (1 µM), compound 1 µM, 72 hours.
Method: MCF7 breast cancer cell lines and MCF10A normal breast cancer cell lines were treated with serial dilutions of the compounds of the present invention ranging from 1 µM to 15.63 nM for 72 hours. Cell viability was measured by the WST-8 assay (Cyto XTM cell viability assay kit; LPS solution, Daejeon, Korea) according to the manufacturer's instructions.

For orientation: IC50 means the point on the concentration scale where inhibition reaches its midpoint.

Molecules are shown by their SMILES. Where two headings read alike, the source gives them in different places.

Consider `CC(C)(C)OC(=O)NCCCNC(=O)c1ccc(Nc2nc(Nc3cc(C4CC4)[nH]n3)c3ccccc3n2)cc1` [4x, sdqs-butyl (3-(4-((4-((5-cyclopropyl-1G-pyrazol-3-yl)amino)quinazolin-2-yl)amino)benzamido)propyl)carbamate], for which the activity at 1 µM in data set [1] (compound 1 µM) stood at 70.8%. Also, the “pENSA (%) Immunofluor ecense (1 µM)” value in the data set with pENSA was 185%. The viability at 1 µM in the data set “in vitro” worked out at 80%; in data set [2], 75.8%.

Consider `CC(C)(C)OC(=O)N1CCC2(CC1)CN(c1nc(Nc3cc(C4CC4)[nH]n3)c3ccccc3n1)C2` [6d, sdqs-butyl 2-(4-((5-cyclopropyl-1G-pyrazol-3-yl)amino)quinazolin-2-yl)-2,7-diazaspiro[3.5]nonane-7-carboxylate], for which the activity at 1 µM in data set [1] (compound 1 µM) amounted to 48%. The “pENSA (%) Immunofluor ecense (1 µM)” value in the data set on pENSA was 96.4%. For the same compound, the viability at 1 µM in the data set “in vitro” was determined as 104%; in data set [2] it was 88.6%.

Turning to `CC(C)(C)OC(=O)c1ccc(Nc2nc(Nc3cc(C4CC4)[nH]n3)c3ccccc3n2)cc1` [compound 4p, sdqs-butyl 4-((4-((5-cyclopropyl-1G-pyrazol-3-yl)amino)quinazolin-2-yl)amino)benzoate], the activity at 1 µM in data set [1] (compound 1 µM) is 58%. Besides, in the data set on pENSA, the “pENSA (%) Immunofluor ecense (1 µM)” value worked out at 56.2%. The viability at 1 µM was found to be 86.8% in the data set “in vitro” and 100% in data set [2].

For `CCc1ccccc1C1=CCN(c2nc(Nc3cc(C4CC4)[nH]n3)c3ccccc3n2)CC1` [compound 6m, M-(5-cyclopropyl-1G-pyrazol-3-yl)-2-(4-(2-ethylphenyl)-3,6-dihydropyridin-1(2G)-yl)quinazolin-4-amine], in data set [1] (compound 1 µM), the activity at 1 µM was 51.8%. Moreover, the “pENSA (%) Immunofluor ecense (1 µM)” value in the data set on pENSA is listed as 97.1%. For the same compound, the results for the viability at 1 µM (in the data set “in vitro”; in data set [2]) were 115% and 65.7%, respectively.

Take `FC(F)(F)c1cccc(C2=CCN(c3nc(Nc4cc(C5CC5)[nH]n4)c4ccccc4n3)CC2)c1` [compound 6g, M-(5-cyclopropyl-1G-pyrazol-3-yl)-2-(4-(3-(trifluoromethyl)phenyl)-3,6-dihydropyridin-1(2G)-yl)quinazolin-4-amine]: the activity at 1 µM in data set [1] (compound 1 µM) was determined as 41.4%. For the same compound, the “pENSA (%) Immunofluor ecense (1 µM)” value with pENSA was 113%. For the same compound, the viability at 1 µM in the data set “in vitro” stood at 104%; in data set [2] it was 95%.

As to `CC(C)(C)OC(=O)N1CCC2(CC1)CCN(c1nc(Nc3cc(C4CC4)[nH]n3)c3ccccc3n1)CC2` [compound 6b, sdqs-butyl 9-(4-((5-cyclopropyl-1G-pyrazol-3-yl)amino)quinazolin-2-yl)-3,9-diazaspiro[5.5]undecane-3-carboxylate], in data set [1] (compound 1 µM), the activity at 1 µM is 43.5%. Also, the “pENSA (%) Immunofluor ecense (1 µM)” value in the data set on pENSA is listed as 98.2%. Besides, the viability at 1 µM turned out to be 122% in the data set “in vitro” and 116% in data set [2].

As to `O=S(=O)(c1cccc(Cl)c1)N1CC2CC1CN2c1nc(Nc2cc(C3CC3)[nH]n2)c2ccccc2n1` (centres unmarked) [compound 15q, 2-(5-((3-chlorophenyl)sulfonyl)-2,5-diazabicyclo[2.2.1]heptan-2-yl)-M-(5-cyclopropyl-1G-pyrazol-3-yl)quinazolin-4-amine], the concentration for half-maximal inhibition (IC50) in data set [1] is 545 nM. Besides, the activity at 1 µM in data set [1] (compound 1 µM) is 49.2%. Besides, the “pENSA (%) Immunofluor ecense (1 µM)” value in the data set on pENSA is 62.5%. Also, the viability at 1.1 µM in “in vitro” was determined as 108%; in data set [2] (read-out: Cell viability (%) WST-8, MCF7, footnote d: concentration 1.1 µM, 72 hours), 106%.

Consider `CC(C)CN1CC2CC1CN2c1nc(Nc2cc(C3CC3)[nH]n2)c2ccccc2n1` (centres unmarked) [compound 15f, M-(5-cyclopropyl-1G-pyrazol-3-yl)-2-(5-isobutyl-2,5-diazabicyclo[2.2.1]heptan-2-yl)quinazolin-4-amine], for which, in data set [1] (compound 1 µM), the activity at 1 µM came out at 65.7%. In addition, the “pENSA (%) Immunofluor ecense (1 µM)” value in the data set on pENSA was determined as 65.3%. In addition, the values for the viability at 1 µM (in “in vitro”; in data set [2]) were 90.1% and 71.7%, respectively.

For the compound `CC(C)(C)OC(=O)Cc1ccc(Nc2nc(Nc3cc(C4CC4)[nH]n3)c3ccccc3n2)cc1` [compound 4q, sdqs-butyl 2-(4-((4-((5-cyclopropyl-1G-pyrazol-3-yl)amino)quinazolin-2-yl)amino)phenyl)acetate], in data set [1] (compound 1 µM), the activity at 1 µM was found to be 76.1%. Besides, the “pENSA (%) Immunofluor ecense (1 µM)” value with pENSA is 53.6%. The viability at 1 µM amounted to 98.8% in the data set “in vitro” and 107% in data set [2].

With `C1=C(c2nc(Nc3cc(C4CC4)[nH]n3)c3ccccc3n2)CCNC1` [compound 8, M-(5-cyclopropyl-1G-pyrazol-3-yl)-2-(1,2,3,6-tetrahydropyridin-4-yl)quinazolin-4-amine trifluoroacetic acid], the activity at 1 µM in data set [1] stood at 57.2%. Further, the “pENSA (%) Immunofluor ecense (1 µM)” value in the data set on pENSA is recorded as 53%. The results for the viability at 1 µM (in the data set “in vitro”; in data set [2]) were 80.8% and 64.3%, respectively.

Consider `O=C(O)c1ccc(Nc2nc(Nc3cc(C4CC4)[nH]n3)c3ccccc3n2)cc1` [compound 4r, 4-((4-((5-cyclopropyl-1G-pyrazol-3-yl)amino)quinazolin-2-yl)amino)benzoic acid], for which the activity at 1 µM in data set [1] came out at 56.6%. Further, the “pENSA (%) Immunofluor ecense (1 µM)” value with pENSA was found to be 12%. Besides, in the data set with pENSA (read-out: IC50(nM) pENSA), the 50% inhibitory concentration (IC50) stood at 988 nM. In addition, the results for the viability at 1 µM (in “in vitro”; in data set [2]) were 84.2% and 98.8%, respectively.

For the compound `CC(C)(C)OC(=O)N1CC=C(c2nc(Nc3cc(C4CC4)[nH]n3)c3ccccc3n2)CC1` [compound 7, sdqs-butyl 4-(4-((5-cyclopropyl-1G-pyrazol-3-yl)amino)quinazolin-2-yl)-3,6-dihydropyridine-1(2G)-carboxylate], the IC50 in data set [1] amounted to 315 nM. Besides, the activity at 1 µM in data set [1] (compound 1 µM) was determined as 31%. Further, the “pENSA (%) Immunofluor ecense (1 µM)” value in the data set on pENSA is given as 68.2%. The viability at 1 µM was 54.9% in “in vitro” and 84.2% in data set [2].

With `CC(C)(C)OC(=O)NCCCCCNC(=O)c1ccc(Nc2nc(Nc3cc(C4CC4)[nH]n3)c3ccccc3n2)cc1` [4z, sdqs-butyl (5-(4-((4-((5-cyclopropyl-1G-pyrazol-3-yl)amino)quinazolin-2-yl)amino)benzamido)pentyl)carbamate], the activity at 1 µM in data set [1] (compound 1 µM) worked out at 85.3%. Further, in the data set on pENSA, the “pENSA (%) Immunofluor ecense (1 µM)” value was found to be 188%. For the same compound, the figures for the viability at 1 µM (in “in vitro”; in data set [2]) were 77.7% and 86.3%, respectively.

Regarding `Cc1ccc(-c2nc3ccccc3s2)cc1Nc1nc(Nc2cc(C3CC3)[nH]n2)c2ccccc2n1` [compound 4l, M^2-(5-(benzo[c]thiazol-2-yl)-2-methylphenyl)-M^4-(5-cyclopropyl-1G-pyrazol-3-yl)quinazoline-2,4-diamine], the activity at 1 µM in data set [1] (compound 1 µM) stood at 81.5%. The “pENSA (%) Immunofluor ecense (1 µM)” value in the data set on pENSA was determined as 88.6%. In addition, the viability at 1 µM came to 118% in “in vitro” and 100% in data set [2].

`CC(C)(C)OC(=O)N1CCN(c2nc(Nc3cc(C4CC4)[nH]n3)c3ccccc3n2)CC1` [compound 10, sdqs-butyl 4-(4-((5-cyclopropyl-1G-pyrazol-3-yl)amino)quinazolin-2-yl)piperazine-1-carboxylate]: the half-inhibitory concentration (IC50) in data set [1] is 569 nM. Besides, the activity at 1 µM in data set [1] (compound 1 µM) is 24.1%. Further, the “pENSA (%) Immunofluor ecense (1 µM)” value with pENSA is on record as 50.3%. Further, the viability at 1 µM in “in vitro” came out at 60.7%; in data set [2] it was 61.4%.

For the compound `CC(C)(C)OC(=O)NCCCCNC(=O)c1ccc(Nc2nc(Nc3cc(C4CC4)[nH]n3)c3ccccc3n2)cc1` [4y, sdqs-butyl (4-(4-((4-((5-cyclopropyl-1G-pyrazol-3-yl)amino)quinazolin-2-yl)amino)benzamido)butyl)carbamate], the activity at 1 µM in data set [1] (compound 1 µM) turned out to be 75.3%. Besides, the “pENSA (%) Immunofluor ecense (1 µM)” value in the data set on pENSA is given as 164%. Moreover, the results for the viability at 1 µM (in “in vitro”; in data set [2]) were 80.2% and 78.7%, respectively.
